We go through 18 compounds from patent US8088815B2, “Spiroindolinone pyrrolidines” (Hoffman-La Roche Inc., priority 2009, dated 2012).

The term IC50 denotes the concentration that inhibits the measured activity by half.

Chain of interaction between p53 and MDM2 proteins (Q00987 whole entry): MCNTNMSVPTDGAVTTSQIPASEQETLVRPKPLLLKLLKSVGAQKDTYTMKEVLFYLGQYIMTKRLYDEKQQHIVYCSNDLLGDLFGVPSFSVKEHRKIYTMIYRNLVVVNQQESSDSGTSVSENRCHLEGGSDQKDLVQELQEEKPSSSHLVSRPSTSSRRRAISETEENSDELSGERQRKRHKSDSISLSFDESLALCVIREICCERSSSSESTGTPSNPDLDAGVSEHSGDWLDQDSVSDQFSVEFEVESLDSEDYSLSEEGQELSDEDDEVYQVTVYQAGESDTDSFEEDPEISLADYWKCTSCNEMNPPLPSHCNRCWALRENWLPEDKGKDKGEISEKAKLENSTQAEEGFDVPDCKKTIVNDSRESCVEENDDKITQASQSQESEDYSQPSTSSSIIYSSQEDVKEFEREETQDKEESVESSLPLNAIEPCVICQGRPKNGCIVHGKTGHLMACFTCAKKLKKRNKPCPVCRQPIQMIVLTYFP

The test concerns the target interaction between p53 and MDM2 proteins (Homo sapiens, UniProt Q00987). In words: HTRF assay of inhibition of the p53-MDM2 interaction (GST-MDM2 / biotinylated p53 peptide). The class given is binding. The following applies: recombinant GST-tagged MDM2 and biotinylated p53 peptide, bsa:0.02%. The procedure: The ability of the compounds to inhibit the interaction between p53 and MDM2 proteins was measured by an HTRF (homogeneous time-resolved fluorescence) assay in which recombinant GST-tagged MDM2 binds to a peptide that resembles the MDM2-interacting region of p53. Binding of GST-MDM2 protein and p53-peptide (biotinylated on its N-terminal end) is registered by the FRET (fluorescence resonance energy transfer) between Europium (Eu)-labeled anti-GST antibody and streptavidin-conjugated Allophycocyanin (APC).
Add 10 uL diluted compounds (1:5 dilution in reaction buffer) to each well, mix by shaking. Add 20 uL biotinylated p53 peptide (180 nM working solution) in reaction buffer to each well and mix on shaker. Incubate at 37° C. for 1 h. Add 20 uL streptavidin-APC and Eu-anti-GST antibody mixture (6 nM Eu-anti-GST and 60 nM streptavidin-APC working solution) in TBS buffer with 0.2% BSA, shake at room temperature for 30 minutes and read using a TRF-capable plate reader at
665 and 615 nm (Victor 5, Perkin ElmerWallac). If not specified, the reagents were purchased from Sigma Chemical Co.
In the case of `COc1cc(NC(=O)[C@@H]2N[C@@H](CC(C)(C)C)[C@@]3(C(=O)Nc4cc(Cl)ccc43)[C@H]2c2cccc(Cl)c2F)ccc1C(N)=O` [Example 23, chiral (2′S,3′R,4′S,5′R)-6-chloro-4′-(3-chloro-2-fluoro-phenyl)-2′-(2,2-dimethyl-propyl)-2-oxo-1,2-dihydro-spiro[indole-3,3′-pyrrolidine]-5′-carboxylic acid (4-carbamoyl-3-methoxy-phenyl)-amide], the IC50 amounted to 5 nM.

Regarding `CC(C)(C)C[C@@H]1N[C@@H](C(=O)Nc2ccc(C(N)=O)cc2F)[C@H](c2cccc(Cl)c2F)[C@]12C(=O)Nc1cc(Cl)ccc12` [Example 54, chiral (2′S,3′R,4′S,5′R)-6-chloro-4′-(3-chloro-2-fluoro-phenyl)-2′-(2,2-dimethyl-propyl)-2-oxo-1,2-dihydro-spiro[indole-3,3′-pyrrolidine]-5′-carboxylic acid (4-carbamoyl-2-fluoro-phenyl)-amide], the half-maximal inhibitory concentration (IC50) was 7 nM.

Consider `CNc1cc(C(=O)OC)ccc1NC(=O)[C@@H]1N[C@@H](CC(C)(C)C)[C@@]2(C(=O)Nc3cc(Cl)ccc32)[C@H]1c1cccc(Cl)c1F` (racemic) [Example 166, rac-4-{[(2′S,3′R,4′S,5′R)-6-chloro-4′-(3-chloro-2-fluoro-phenyl)-2′-(2,2-dimethyl-propyl)-2-oxo-1,2-dihydro-spiro[indole-3,3′-pyrrolidine]-5′-carbonyl]amino}-3-methylamino-benzoic acid methyl ester], for which the IC50 is 25 nM.

`COc1cc(-n2cnnn2)ccc1NC(=O)[C@@H]1N[C@@H](CC(C)(C)C)[C@@]2(C(=O)Nc3cc(Cl)ccc32)[C@H]1c1cccc(Cl)c1F` (racemic) [Example 153, rac-(2′S,3′R,4′S,5′R)-6-chloro-4′-(3-chloro-2-fluoro-phenyl)-2′-(2,2-dimethyl-propyl)-2-oxo-1,2-dihydro-spiro[indole-3,3′-pyrrolidine]-5′-carboxylic acid (2-methoxy-4-tetrazol-1-yl-phenyl)-amide]: the IC50 amounted to 8 nM.

Take `COc1cc(OCC[S+](C)[O-])ccc1NC(=O)[C@@H]1N[C@@H](CC(C)(C)C)[C@@]2(C(=O)Nc3cc(Cl)ccc32)[C@H]1c1cccc(Cl)c1F` (single isomer, unassigned) [Example 171, chiral (2′S,3′R,4′S,5′R)-6-chloro-4′-(3-chloro-2-fluoro-phenyl)-2′-(2,2-dimethyl-propyl)-2-oxo-1,2-dihydro-spiro[indole-3,3′-pyrrolidine]-5′-carboxylic acid [4-(2-methanesulfinyl-ethoxy)-2-methoxy-phenyl]-amide]: the IC50 was found to be 6 nM.

Turning to `CC(C)(C)C[C@@H]1N[C@@H](C(=O)Nc2ccc(CCC(=O)O)cc2)[C@H](c2cccc(Cl)c2F)[C@]12C(=O)Nc1cc(Cl)ccc12` (racemic) [Example 209, rac-3-(4-{[(2′S,3′R,4′S,5′R)-6-chloro-4′-(3-chloro-2-fluoro-phenyl)-2′-(2,2-dimethyl-propyl)-2-oxo-1,2-dihydro-spiro[indole-3,3′-pyrrolidine]-5′-carbonyl]-amino}-phenyl)-propionic acid], the IC50 was 4 nM.

Take `CC(C)(C)C[C@@H]1N[C@@H](C(=O)Nc2ccc(C(N)=O)cc2)[C@H](c2cccc(Cl)c2F)[C@]12C(=O)Nc1cc(Cl)c(F)cc12` (racemic) [Example 49, rac-(2′S,3′R,4′S,5′R)-6-chloro-4′-(3-chloro-2-fluoro-phenyl)-2′-(2,2-dimethyl-propyl)-5-fluoro-2-oxo-1,2-dihydro-spiro[indole-3,3′-pyrrolidine]-5′-carboxylic acid (4-carbamoyl-phenyl)-amide]: the half-inhibitory concentration (IC50) was found to be 13 nM.

As for `COc1cc(C#N)ccc1NC(=O)[C@@H]1N[C@@H](CC(C)(C)C)[C@@]2(C(=O)Nc3cc(Cl)cc(F)c32)[C@H]1c1cccc(Cl)c1F` (racemic) [Example 75, rac-(2′S,3′R,4′S,5′R)-6-chloro-4′-(3-chloro-2-fluoro-phenyl)-2′-(2,2-dimethyl-propyl)-4-fluoro-2-oxo-1,2-dihydro-spiro[indole-3,3′-pyrrolidine]-5′-carboxylic acid (4-cyano-2-methoxy-phenyl)-amide], the IC50 came to 20 nM.

With `CC(C)(C)C[C@@H]1N[C@@H](C(=O)Nc2ccc(C#N)cc2)[C@H](c2cccc(Cl)c2F)[C@]12C(=O)Nc1cc(Cl)c(F)cc12` (racemic) [Example 48, rac-(2′S,3′R,4′S,5′R)-6-chloro-4′-(3-chloro-2-fluoro-phenyl)-2′-(2,2-dimethyl-propyl)-5-fluoro-2-oxo-1,2-dihydro-spiro[indole-3,3′-pyrrolidine]-5′-carboxylic acid (4-cyano-phenyl)-amide], the IC50 was found to be 16 nM.

With `CN(C)C(=O)c1ccc(NC(=O)[C@@H]2N[C@@H](CC(C)(C)C)[C@@]3(C(=O)Nc4cc(Cl)ccc43)[C@H]2c2cccc(Cl)c2F)cc1` (racemic) [Example 34, rac-(2′S,3′R,4′S,5′R)-6-chloro-4′-(3-chloro-2-fluoro-phenyl)-2′-(2,2-dimethyl-propyl)-2-oxo-1,2-dihydro-spiro[indole-3,3′-pyrrolidine]-5′-carboxylic acid (4-dimethylcarbamoyl-phenyl)-amide], the IC50 was 18 nM.

Regarding `CC(C)(C)C[C@@H]1N[C@@H](C(=O)Nc2ccc(C(N)=O)c(Cl)c2)[C@H](c2cccc(Cl)c2F)[C@]12C(=O)Nc1cc(Cl)ccc12` [Example 26, chiral (2′S,3′R,4′S,5′R)-6-chloro-4′-(3-chloro-2-fluoro-phenyl)-2′-(2,2-dimethyl-propyl)-2-oxo-1,2-dihydro-spiro[indole-3,3′-pyrrolidine]-5′-carboxylic acid (4-carbamoyl-3-chloro-phenyl)-amide], the IC50 was found to be 6 nM.

Turning to `COc1cc(OCCO)ccc1NC(=O)[C@@H]1N[C@@H](CC(C)(C)C)[C@@]2(C(=O)Nc3c2ccc(Cl)c3F)[C@H]1c1cccc(Cl)c1F` (racemic) [Example 179, rac-(2′S,3′R,4′S,5′R)-6-chloro-4′-(3-chloro-2-fluoro-phenyl)-2′-(2,2-dimethyl-propyl)-7-fluoro-2-oxo-1,2-dihydro-spiro[indole-3,3′-pyrrolidine]-5′-carboxylic acid [4-(2-hydroxy-ethoxy)-2-methoxy-phenyl]-amide], the IC50 is 39 nM.

With `CC(C)(C)C[C@@H]1N[C@@H](C(=O)Nc2ccc(S(C)(=O)=O)cc2)[C@H](c2cccc(Cl)c2F)[C@]12C(=O)Nc1cc(Cl)ccc12` (racemic) [Example 10, rac-(2′S,3′R,4′S,5′R)-6-chloro-4′-(3-chloro-2-fluoro-phenyl)-2′-(2,2-dimethyl-propyl)-2-oxo-1,2-dihydro-spiro[indole-3,3′-pyrrolidine]-5′-carboxylic acid (4-methanesulfonyl-phenyl)-amide], the IC50 was found to be 13 nM.

In the case of `COc1cc(C(=O)O)ccc1NC(=O)[C@@H]1N[C@@H](CC(C)(C)C)[C@@]2(C(=O)Nc3cc(Cl)ccc32)[C@H]1c1cccc(Cl)c1F` (racemic) [Example 110, rac-4-{[(2′S,3′R,4′S,5′R)-6-chloro-4′-(3-chloro-2-fluoro-phenyl)-2′-(2,2-dimethyl-propyl)-2-oxo-1,2-dihydro-spiro[indole-3,3′-pyrrolidine]-5′-carbonyl]-amino}-3-methoxy-benzoic acid], the IC50 stood at 11 nM.

In the case of `COc1cc(C(N)=O)ccc1NC(=O)[C@@H]1N[C@@H](CC(C)(C)C)[C@@]2(C(=O)Nc3cc(Cl)ccc32)[C@H]1c1cc(F)cc(Cl)c1` [Example 148, chiral (2′S,3′R,4′R,5′R)-6-chloro-4′-(3-chloro-5-fluoro-phenyl)-2′-(2,2-dimethyl-propyl)-2-oxo-1,2-dihydro-spiro[indole-3,3′-pyrrolidine]-5′-carboxylic acid (4-carbamoyl-2-methoxy-phenyl)-amide], the IC50 worked out at 5 nM.

As to `CC(C)(CO)C[C@@H]1N[C@@H](C(=O)Nc2ccc(C#N)cc2)[C@H](c2cccc(Cl)c2F)[C@]12C(=O)Nc1cc(Cl)ccc12` (racemic) [Example 105, rac-(2′S,3′R,4′S,5′R)-6-chloro-4′-(3-chloro-2-fluoro-phenyl)-2′-(3-hydroxy-2,2-dimethyl-propyl)-2-oxo-1,2-dihydro-spiro[indole-3,3′-pyrrolidine]-5′-carboxylic acid (4-cyano-phenyl)-amide], the IC50 amounted to 13 nM.

Regarding `COc1cc(C(N)=O)ccc1NC(=O)[C@@H]1N[C@@H](CC(C)(C)C)[C@@]2(C(=O)Nc3cc(Cl)ccc32)[C@H]1c1cccc(Cl)c1F` (racemic) [Example 59, rac-(2′S,3′R,4′S,5′R)-6-chloro-4′-(3-chloro-2-fluoro-phenyl)-2′-(2,2-dimethyl-propyl)-2-oxo-1,2-dihydro-spiro[indole-3,3′-pyrrolidine]-5′-carboxylic acid (4-carbamoyl-2-methoxy-phenyl)-amide], the IC50 was 14 nM.

Turning to `COc1cc(OCCO)ncc1NC(=O)[C@@H]1N[C@@H](CC(C)(C)C)[C@@]2(C(=O)Nc3cc(Cl)ccc32)[C@H]1c1cccc(Cl)c1F` (racemic) [Example 192, rac-(2′S,3′R,4′S,5′R)-6-chloro-4′-(3-chloro-2-fluoro-phenyl)-2′-(2,2-dimethyl-propyl)-2-oxo-1,2-dihydro-spiro[indole-3,3′-pyrrolidine]-5′-carboxylic acid [6-(2-hydroxy-ethoxy)-4-methoxy-pyridin-3-yl]-amide], the IC50 is 7 nM.
